According to patent EP0674645B1, “CEPHEM COMPOUNDS WITH ANTIMICROBIAL ACTIVITY” (FUJISAWA PHARMACEUTICAL CO., LTD., priority 1992, dated 1994):
Structures can show the parent of a compound that is named as a salt.

Experiments:
Assay in all cases: In vitro antibacterial activity, two-fold agar-plate dilution method (MIC)
Assay type in all cases: cell-based
E. coli 31 = settings: Escherichia coli, heart infusion agar, 10^6 viable cells per ml, 37°C for 20 hours
Procedure: (§1) In vitro antibacterial activity was determined by the two-fold agar-plate dilution method as described below. One loopful of an overnight culture of each test strain in Trypticase-soy broth (10^6 viable cells per ml) was streaked on heart infusion agar (HI-agar) containing graded concentrations of representative test compound, and the minimal inhibitory concentration (MIC) was expressed in terms of µg/ml after incubation at 37°C for 20 hours.

S. aureus 2538 = settings: Staphylococcus aureus, heart infusion agar, 10^6 viable cells per ml, 37°C for 20 hours
Procedure: as §1

P. aeruginosa 2 = settings: Pseudomonas aeruginosa, heart infusion agar, 10^6 viable cells per ml, 37°C for 20 hours
Procedure: as §1

## CCO/N=C(\C(=O)N[C@@H]1C(=O)N2C(C(=O)[O-])=C(C[n+]3ccc(N)n3CCO)CS[C@H]12)c1nsc(N)n1 [7β-[2-(5-Amino-1,2,4-thiadiazol-3-yl)-2-ethoxyiminoacetamido]-3-[3-amino-2-(2-hydroxyethyl)-1-pyrazolio]methyl-3-cephem-4-carboxylate hydrochloride (syn isomer)]
E. coli 31
  MIC: ≤ 0.025 µg/mL
S. aureus 2538
  MIC: 3.13 µg/mL
P. aeruginosa 2
  MIC: 0.39 µg/mL
